Experimental data from US10209240B2, “Predicting human developmental toxicity of pharmaceuticals using human stem-like cells and metabolomic ratios” (STEMINA BIOMARKER DISCOVERY, INC., priority 2012, dated 2019).

Key:
[1] = tested on: mouse embryonic stem cell; conditions: training and test set; weak/moderate and strong teratogens both labeled teratogen; cited from earlier work
[2] = tested on: Humans; conditions: cited from earlier work; for Humans (known human developmental toxicity): training and test set; for Known Effect: validation and test set treatments of Example 2
[3] = tested on: rat whole embryo; conditions: training and test set; weak/moderate and strong teratogens both labeled teratogen; cited from earlier work
[4] = tested on: Rabbit; conditions: training and test set; cited from earlier work
[5] = tested on: WA09 hES cells; assay: Phase 1 untargeted metabolomics of hES cell spent media, single concentration (ornithine, cystine, o/c ratio); type: cell-based, human; conditions: for Cystine abundance relative to the reference treatment / Ornithine abundance relative to the reference treatment: Phase 1, spent media, 72 hours, reference 0.1% DMSO; for Cystine abundance relative to the reference treatment: Cmax exposure (IC30 for hydroxyurea); for Ornithine abundance relative to the reference treatment: Cmax or IC30 exposure
Method: Undifferentiated hES Cell Line Maintenance (Phases 1 and 2).
96-well hES Cell Plating (Phases 1 and 2). […] Compound exposure began 24 hours after plating.
Sample Preparation (Phases 1 and 2).
Phase 1 Mass Spectrometry. LC-HRMS data was acquired for nine biological replications on three separate LC-HRMS systems with three replications evaluated on each system. Each system consisted of an Agilent 1290 Infinity LC system interfaced either with an Agilent G6520A QTOF high resolution mass spectrometer (QTOF HRMS), an Agilent G6530A QTOF HRMS, or an Agilent G6224A TOF HRMS system (Agilent Technologies, Santa Clara, Calif.). To facilitate separation of biological small molecules with a wide range of structures and to allow increased retention of hydrophilic species, Hydrophilic Interaction Liquid Chromatography (HILIC) was utilized. A Luna HILIC column (Phenomenex, Torrance, Calif.) with dimensions 3×100 mm and 3 μm particle size was used and maintained at 30° C. […] Electrospray ionization was employed using a dual ESI source. The scan range of the instrument was 70-1600 Da. Data acquisition was performed with MassHunter Acquisition software (version B 04.00, Agilent Technologies) using high-resolution exact mass conditions and each set of samples was run first under ESI positive polarity then under ESI negative polarity conditions.
Peak Detection (Phases 1 and 2). […] Mass features (peaks) were detected using the centwave algorithm.
Ornithine/Cystine Ratio Calculation.
Teratogenicity Threshold Selection (Phases 1 and 2).
Phase 1 Prediction of Developmental Toxicity Potential. A test compound was classified as a developmental toxicant if the mean of the change in the abundance in the treated sample compared to the reference treatment (DMSO) across the nine experimental replications for either metabolite or the o/c ratio exceeded its respective teratogenicity threshold at the concentration tested. The predictive accuracy (correct prediction), sensitivity (true positive rate), and specificity (true negative rate) were based on scoring the predicted result (teratogen or non-teratogen) against the known human teratogenicity of the compound.

[6] = tested on: Rodent; conditions: cited from earlier work; for Rodent prediction: training and test set
[7] = training set; therapeutic peak plasma in vivo concentration, human; cited from earlier work

Row | Structure (SMILES) | mEST prediction [1] | Humans (known human developmental toxicity) [2] | Known Effect [2] | WEC prediction [3] | Rabbit prediction [4] | Cystine abundance relative to the reference treatment [5] | Ornithine abundance relative to the reference treatment [5] | Rodent prediction [6] | Cmax [7] [nM] | Rodent developmental toxicity testing, result in words ([6]; relation to maternal toxicity where stated) | Classification by o/c ratio in Phase 1 ([5]; teratogenicity threshold of a 12% decrease in the o/c ratio, single concentration)
1 | CC1=C(/C=C/C(C)=C/C=C/C(C)=C/C(=O)O)C(C)(C)CCC1 [All-trans Retinoic Acid] | TER^b,p | TER | Ter | TER^q,s | TER | significant increase in abundance | increased | TER | 1200 |  | 
2 | NC(=O)N1c2ccccc2C=Cc2ccccc21 [Carbamazepine] | TER^i | TER | Ter | TER^j |  | significant increase in abundance |  | TER |  |  | 
3 | O=C1CCC(N2C(=O)c3ccccc3C2=O)C(=O)N1 (stereo not drawn) [Thalidomide] |  | TER | Ter | TER^f | TER | significant increase in abundance |  | NON^a | 12400 | did not indicate the compound's teratogenic potential in humans | 
4 | O=C1NC(=O)C(c2ccccc2)(c2ccccc2)N1 [Diphenylhydantoin] | TER^b,i | TER | Ter | TER^f,j | TER |  |  | TER |  |  | misclassifying
5 | CC1=C(/C=C/C(C)=C/C=C/C(C)=C\C(=O)O)C(C)(C)CCC1 [13-cis Retinoic Acid] | TER^p | TER | Ter | TER^s | TER | significant increase in abundance | increased | TER | 2900 |  | 
